How the values were obtained:
[1] = Assay for ABTS+ radical scavenging; details: 100 μM
Protocol: The ABTS^+-scavenging efficacy of compounds 1–15 was determined by oxidizing ABTS with K2S2O8 to prepare ABTS^+. The prepared ABTS^+ solution was mixed with the test samples (1–15 and Trolox, a positive control) and the radical-scavenging efficacy of the test samples was explored by measuring the decrease in optical density at 732 nm. All test samples were tested at 100 μM.
To acquire ABTS^+ radicals, ABTS (14 mM in 20 mL H2O) was mixed with K2S2O8 (4.9 mM in 20 mL H2O), an oxidant agent, and stored at 22 °C in a place without light for 15 h. The absorbance of the prepared ABTS^+ radical solution was adjusted to 0.70 ± 0.01 at 732 nm by adding methanol. Test samples (Trolox [positive control] and 1–15) were dissolved in a co-solvent (DMSO:EtOH = 1:10 [v/v]). The diluted ABTS^+ radical solution (90 μL) was added to the test sample solution (10 μL) in each well of a 96-well plate and held at 22 °C in the dark for 2 min. The optical density of each well was recorded at 732 nm every 1 min for 10 min using an ELISA reader. The final concentration of test samples was 100 μM. %Radical-scavenging activity was determined using the formula 100 × [(Abscon − Abssam)/Abscon], where Abscon and Abssam represent the optical densities of the control and the samples, respectively.

[2] = Assay for DPPH radical scavenging; details: 500 μM; 30 min in the dark
Protocol: To evaluate the DPPH radical-scavenging efficacy of 1–15, a DPPH methanol solution was mixed with compounds 1–15, and the mixture was left in the dark. After 30 min, the radical-scavenging efficacy of each compound was determined by measuring the optical density at 517 nm. Vitamin C (L-ascorbic acid) was used for comparing radical-scavenging activity, and all test samples were treated at 500 μM.
DPPH was dissolved in methanol to prepare a 0.2 mM solution, and test samples (vitamin C [L-ascorbic acid, LA; positive control] and 1–15) were dissolved in DMSO to prepare a 5 mM solution. The DPPH methanolic solution (180 μL) was added to the test sample DMSO solution (20 μL) in each well of a 96-well microplate and kept in a place without light for 30 min at 22 °C. Using a VersaMax™ ELISA reader, the optical density of each well was recorded at 517 nm to determine DPPH radical-scavenging activity.

[3] = Assay for ROS scavenging (SIN-1/DCFH); details: 40 μM sample; 10 μM SIN-1
Protocol: To assess the ability of compounds 1–15 to scavenge ROS, 2′,7′-dichlorodihydrofluorescein (DCFH) solution, which was obtained from hydrolysis of DCFH diacetate by esterase, was mixed with 3-morpholinosydnonimine (SIN-1), a ROS generator, and test samples (1–15 and Trolox, a positive material). ROS produces 2′,7′-dichlorofluorescein (DCF), a fluorescent material, by oxidizing DCFH. The ROS-scavenging activity of the samples was determined by measuring the fluorescence of DCF. The results were obtained at 10 μM SIN-1 and 40 μM sample.
To obtain 2′,7′-dichlorodihydrofluorescein (DCFH) solution, esterase (3 units/2 mL) was mixed with 2.5 mM DCFH diacetate and 50 mM phosphate buffer (pH 7.4). After incubating the mixture at 22 °C for 25 min, it was kept in the dark. 3-Morpholinosydnonimine (SIN-1) and compounds 1–15 were dissolved in phosphate buffer and DMSO, respectively. SIN-1 (10 µL) and compound (10 µL) were added to each well of a 96-well black plate containing phosphate buffer (180 µL), and the concentrations of SIN-1 and compound were 10 and 40 μM, respectively. Trolox (40 μM) was used as a positive material. […] To measure the fluorescence of 2′,7′-dichlorofluorescein at 535 nm, a microplate reader (Berthold Advances GmbH &Co., Bad Wildbad, Germany) was utilized with an excitation wavelength of 485 nm. […]

[4] = test system: tyrosinase activity of zebrafish larvae; test: Tyrosinase activity in zebrafish larvae; assay type: in vivo, Danio rerio; details: 20 mM; 76 hpf
Protocol: To quantify the tyrosinase activity in zebrafish larvae, 60 zebrafish larvae at 76 hpf were divided into three Eppendorf tubes and centrifuged at 10,000× g for 10 min at 4 °C. After removing the supernatant, the residue was lysed using radioimmunoprecipitation assay buffer (100 μL) (Biosedang, Gyeonggi-do, Republic of Korea) and homogenized for 5 min using a sonicator. The lysate was centrifuged at 10,000× g for 10 min at 4 °C. The supernatants were transferred to a new Eppendorf tube and the protein content was quantified using a bicinchoninic acid protein assay kit (Thermo Fisher Scientific, Waltham, MA, USA). An aliquot (100 μL) of 1 mM L-DOPA was added to the new Eppendorf tube containing a total of 300 μg of protein in 100 μL of protein lysate. Eppendorf tubes were incubated for 1 h at 37 °C and then transferred to each well of a 96-well plate. The absorbance of each well was measured at 475 nm to determine the tyrosinase activity of zebrafish larvae.

[5] = test system: B16F10 cells; test: Melanin content assay in B16F10 cells; assay type: cell-based; details: 20 μM; α-MSH + IBMX; 72 h; stimulators alone 3.9-fold
Protocol: After 72 h, the effect of compound 10 on melanin biosynthesis was determined. A 6-well microplate containing 5 × 10^3 B16F10 cells per well was incubated at 37 °C for 24 h. Compound 10 was added to each well at 5, 10, and 20 μM and incubated for 1 h, and then stimulators (1 μM α-MSH and 200 μM IBMX) were added to each well before 72 h incubation. […] For the melanin content quantification, the cells were lysed at 60 °C for 1 h in 100 μL 1N-NaOH solution containing 10% DMSO after washing 2 times with phosphate-buffered saline (PBS). The cell lysates were transferred to a 96-well microplate and the optical density was measured at 405 nm using an ELISA reader to calculate the melanin content in each well.

[6] = test system: zebrafish larvae; test: Zebrafish depigmentation assay using zebrafish embryos; assay type: in vivo, Danio rerio; parameters: pigmentation of zebrafish larvae: dose or concentration left out as unconfirmed; details: treated at 28 hpf, read at 76 hpf
Protocol: Zebrafish embryos were used to determine whether the synthesized compounds could inhibit melanin synthesis in vivo. […] The degree of depigmentation in zebrafish larvae was confirmed by photography 48 h later (Figure 8A). The density of the zebrafish larvae was measured using a CS analyzer 3.2 (Atto, Tokyo, Japan). […] To obtain zebrafish (wild type, Danio rerio) eggs for the experiment, six male and nine female zebrafish were raised separately in oxygen-connected tanks. Dried brine shrimp (Artemia salina, San Francisco Bay Brand, San Francisco, CA, USA) were fed as food three times per day. They were raised at 28 °C with 10 h of light blocking and 14 h of light exposure. The evening before obtaining zebrafish eggs, three females and two males were placed together in three zebrafish mating cages, and the light was blocked. The following morning, mating was induced by exposure to light. Harvested zebrafish eggs, obtained free of charge from the Zebrafish Center for Disease Modeling (Chungnam National University, Daejeon, Republic of Korea), were kept in an E3 embryonic solution containing methylene blue (MB) until the dechorionation process was performed. […] The pigmented areas in the zebrafish larval photographs were determined using an ATTO CS analyzer 3.2 (Tokyo, Japan).

[7] = test system: B16F10 cellular tyrosinase; test: Cellular tyrosinase activity assay in B16F10 cells; assay type: cell-based; details: 20 μM; α-MSH + IBMX; 72 h; stimulators alone 3.9-fold vs untreated control
Protocol: We analyzed the effect of 10 on B16F10 cellular tyrosinase activity to determine whether the ability of 10 inhibiting melanogenesis results from its ability to inhibit cellular tyrosinase activity.
A 6-well microplate containing 5 × 10^3 B16F10 cells per well was incubated at 37 °C for 24 h. Compound 10 was added to each well at 5, 10, and 20 μM and incubated for 1 h, and then stimulators (1 μM α-MSH and 200 μM IBMX) were added to each well before 72 h incubation.
To measure the cellular tyrosinase activity, the cells incubated for 72 h were washed 2 times with PBS, exposed to a 100 μL lysis buffer solution containing 5 μL 2 mM phenylmethylsulfonyl fluoride, 5 μL 20% Triton X-100, and 90 μL 50 mM phosphate buffer (pH 6.5), and cultivated for 30 min at −80 °C. After the lysates were centrifuged at 4 °C for 10 min at 10,000× g, an aliquot (80 μL) of the supernatants was added to each well of a 96-well microplate containing 20 μL of 10 mM L-DOPA. Data for the optical density at 475 nm were obtained every 1 min for 10 min at 37 °C using an ELISA reader to determine cellular tyrosinase activity.

[8] = test system: B16F10 cells; test: In situ cellular tyrosinase activity assay (L-DOPA staining); assay type: cell-based; details: 20 μM; α-MSH + IBMX; 72 h, then L-DOPA 2 h
Protocol: The effect of 10 on cellular tyrosinase activity was investigated in situ using L-DOPA and B16F10 cells. This experimental method allows for the direct observation of cellular melanin production. […] After 72 h of incubation, the cells were treated with L-DOPA for 2 h to induce melanin production.
A 24-well plate containing 1 × 10^3 B16F10 cells per well was incubated at 37 °C for 24 h. […] After incubation for 72 h, the cells were fixed for 50 min using paraformaldehyde (4%), rinsed twice with PBS, and permeabilized for 2 min using Triton X-100 (0.1%). The cells were washed with PBS and 500 μL of 2 mM L-DOPA solution was added. After the cells were incubated at 37 °C for 2 h, stained images were obtained using a camera connected to a microscope (Motic, Hong Kong, China).

| SMILES | ABTS+ scavenging [1] [%] | DPPH radical scavenging [2] [%] | ROS-scavenging activity [3] | tyrosinase activity of zebrafish larvae [4] | stimulator-induced melanin content [5] [fold] | pigmentation of zebrafish larvae [6] | cellular tyrosinase activity [7] [fold] | in situ melanin formation (L-DOPA staining) [8] |
| --- | --- | --- | --- | --- | --- | --- | --- | --- |
| O=C1N=C(Nc2cccc3ccccc23)S/C1=C\c1ccc(O)c(O)c1 [Compound 8, (Z)-5-(3,4-Dihydroxybenzylidene)-2-(naphthalen-1-ylamino)thiazol-4(5H)-one] | 99 | 77 | very strong ROS-scavenging capacity, which was more potent than that of Trolox |  |  |  |  |  |
| O=c1cc(CO)occ1O [Kojic acid, reference compound] |  |  |  | significantly reduced tyrosinase activity | 3.4 | pigmentation of zebrafish larvae was reduced | 3.3 | melanin production was suppressed compared with that in the group treated with only stimulators |
| Cc1c(C)c2c(c(C)c1O)CCC(C)(C(=O)O)O2 (stereo not shown) [Trolox, reference compound] | 99 |  | strong ROS-scavenging activity |  |  |  |  |  |

Source: article PMC11767423, “Design, Synthesis, and Antioxidant and Anti-Tyrosinase Activities of (Z)-5-Benzylidene-2-(naphthalen-1-ylamino)thiazol-4(5H)-one Analogs: In Vitro and In Vivo Insights” (Molecules, 2025)
